Consider 2 compounds from BindingDB's records for doi:10.1021/jm801242y (Boehringer Ingelheim Pharmaceuticals, 2009).

The target of the experiment is Serine/threonine-protein kinase pim-2 (Homo sapiens, UniProt Q9P1W9). In words: Pim Kinase Dose-Response Assay. The following applies: pH 7.5; 22 °C.
Serine/threonine-protein kinase pim-2, sequence (Q9P1W9 whole entry): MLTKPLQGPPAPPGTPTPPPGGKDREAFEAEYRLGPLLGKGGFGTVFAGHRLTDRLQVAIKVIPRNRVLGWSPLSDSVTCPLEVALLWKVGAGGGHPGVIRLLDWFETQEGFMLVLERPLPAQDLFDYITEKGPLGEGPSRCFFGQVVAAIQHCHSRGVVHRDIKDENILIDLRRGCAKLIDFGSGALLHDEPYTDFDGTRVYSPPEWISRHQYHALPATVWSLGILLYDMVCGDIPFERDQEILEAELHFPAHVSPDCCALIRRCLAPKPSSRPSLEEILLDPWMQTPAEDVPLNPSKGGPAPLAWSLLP

Procedure: The activity of Pim kinase was measured in a homogeneous luciferase assay using GST-Pim, biotinylated peptide substrate and a luciferin-luciferase detection reagent to quantify residual ATP. Test compounds were serially diluted for the 10-point concentration response. […] Following incubation, ATP detection reagent was added to the assay plates and the relative light unit (RLU) signal was measured on the Analyst (Molecular Devices) in luminescence mode. The RLU signals were converted to percent of control in dose-response curves. The IC50 was determined as the inflection point parameter.

As usually defined, the IC50 is the midpoint of a concentration-inhibition curve. High values mean weaker potency in that assay, low ones greater potency in that assay. For the compound `CN1CCCN(c2cncc(-c3cccc(C=Cc4nnn[nH]4)c3)n2)CC1` [1-methyl-4-(6-{3-[(E)-2-(1H-1,2,3,4-tetrazol-5-yl)ethenyl]phenyl}pyrazin-2-yl)-1,4-diazepane], the IC50 came out at 160 nM.
For the compound `CN1CCCN(c2cnccn2)CC1` [1-methyl-4-(pyrazin-2-yl)-1,4-diazepane], the IC50 is more than 8000 nM.
